Reference: paper PMC11794677, “Self‐Assembly of a Conjugate of Lipoic Acid With a Collagen‐Stimulating Pentapeptide Showing Cytocompatibility and Wound Healing Properties, and Chemical and Photolytic Disassembly” (Journal of Peptide Science, 2025)

Assay: SAXS form factor fits (core-shell cylinder, generalized Gaussian coil)
Format: physicochemical
Description: SAXS experiments were performed on beamline B21 [28] at Diamond (Didcot, UK). The sample solution was loaded into the 96‐well plate of an EMBL BioSAXS robot and then injected via an automated sample exchanger into a quartz capillary (1.8‐mm internal diameter) in the X‐ray beam. The quartz capillary was enclosed in a vacuum chamber, to avoid parasitic scattering. After the sample was injected into the capillary and reached the X‐ray beam, the flow was stopped during the SAXS data acquisition. Beamline B21 was operated with a fixed camera length (3.9 m) and fixed energy (12.4 keV). The images were captured using a PILATUS 2M detector. Data processing was performed using dedicated beamline software ScÅtter.
Cryo‐TEM was used to probe potential aggregation in solution above the CAC (3 wt% aqueous solution). […] The presence of such structures was also confirmed by SAXS and SANS data (Figure 3), which reveal form factor features that can be fitted using a core‐shell cylinder form factor, consistent with extended fibril structures. The cylinder radius is 25 Å, which is approximately equal to the estimated length of the molecule considering the lipid chain plus a pentapeptide in a β‐sheet conformation. […] For the SAXS data, it was necessary to include a contribution in the fits from unaggregated peptide, which gives rise to scattering at high q, described using a generalized Gaussian coil form factor (generalized refers to allowing the Flory exponent for the coil to vary from the value ν = 0.5 for an unperturbed coil). SANS data for 3 wt% solutions of lipoyl‐KTTKS in D2O can be fitted to a core‐shell cylinder form factor, consistent with SAXS, with fit parameters listed in Table S1. It was not necessary to allow for unaggregated monomer in fitting the SANS data, which may be because of the higher background and/or altered scattering contrast compared with SAXS. The cylinder radius and shell thickness obtained from the fits to the SANS data are in excellent agreement with the parameters obtained from the SAXS fit.
The ring‐opening of the lipoyl moiety can be achieved under reductive conditions. We examined the effect of chemical reduction on the self‐assembled structures of lipoyl‐KTTKS using TCEP [tris(2‐carboxyethyl)phosphine] as reductant. […] The SAXS data in Figure 3a show a considerable reduction in scattering intensity after addition of TCEP and the SANS profile in Figure 3b is barely above background after addition of TCEP. The SAXS data can be described using a form factor for monomer scattering with a power‐law intensity function at low q to account for a small fraction of irregular aggregates. The disruption of the fibrils upon TCEP addition was also confirmed by cryo‐TEM (images shown in Figure S1) because no aggregate structures were observed after addition of TCEP. Circular dichroism (CD) spectra shown in Figure 4 are characterized by a negative minimum in the CD spectrum at 196 nm along with the absence of defined features at higher wavelength, characteristic of a primarily disordered conformation. However, taking the difference between the CD spectra for lipoyl‐KTTKS without and with TCEP produces a spectrum (green spectrum in Figure 5) with a minimum near 215 nm, characteristic of β‐sheet structure. This is consistent with the observation that lipoyl‐KTTKS forms fibril‐like structures above a CAC detected by ThT binding to β‐sheet structure and as observed by cryo‐TEM, SAXS and SANS.
Table S1. SANS and SAXS data fitted parameters. Data fitted using SASfit,^[1-2] using a long cylindrical shell form factor model, with allowance for monomers via a Generalized Gaussian coil factor for SAXS data. […]

[1] = 3 wt%, long cylindrical shell form factor
[2] = 3 wt%, long cylindrical shell form factor, listed as lipoyl-KTTKS

Rg radius of gyration (monomer) (3 wt% with 2.6 wt% TCEP, generalized Gaussian coil form factor): 6.3 Å | Rg radius of gyration (unaggregated peptide) (3 wt%, generalized Gaussian coil form factor): 22.0 Å | L length [1]: 987 Å | Ro outer radius (Gaussian polydispersity ΔR) [1]: 25 Å | t shell thickness [1]: 10 Å | Ro outer radius (Gaussian polydispersity ΔR) [2]: 25.0 ± 25.0 Å | t shell thickness [2]: 10.0 Å
Substance: lipoyl‐KTTKS [peptide amphiphile comprising a conjugate of lipoic acid to pentapeptide KTTKS]
